Source: article PMC11904715, “Discovery of Novel Pyrrolidine-Based Chalcones as Dual Inhibitors of α-Amylase and α-Glucosidase: Synthesis, Molecular Docking, ADMET Profiles, and Pharmacological Screening” (ACS Omega, 2025)

How the values were obtained:
α-glucosidase = α-glucosidase inhibitory activity, spectrophotometric p-nitrophenyl-α-D-glucopyranoside method; assay type: biochemical; settings: for IC50: mean ± SEM of three parallel measurements, concentration range 50–100–200–400 μM, read-out: antidiabetic inhibition activity IC50 α-lucosidase
Description: Specifically, 50 μL of phosphate buffer (10 mM, pH 6.9), 25 μL of p-nitrophenyl-α-D-glucopyranoside in phosphate buffer (10 mM, pH 6.9), 10 μL of sample solution, and 25 μL of α-glucosidase (0.1 U/mL) in phosphate buffer (10 mM, pH 6.0) were combined in a 96-well microplate. After 20 min of incubation at 37 °C, 90 μL of Na2CO3 (100 mM) was added to each well to halt the enzymatic reaction. The absorbance was measured at 400 nm by using a 96-well microplate reader.
(§1) All biological activity data were taken in three parallel measurements for four different concentrations of each synthesis sample. The results of the biological activity analyses are presented as the IC50 values.

[1] = system: nonsmall lung cancer (A549) cells; assay: Cytotoxic activity, MTT cell viability assay, A549; assay type: cell-based; settings: Homo sapiens, A549, 24 h
Description: (§2) In this research, the nonsmall lung cancer (A549) and bronchial epithelial normal (BEAS-2B) cells were used for cytotoxicity experiments. All of the cells were cultured in Dulbecco’s Modified Eagle Medium (Gibco, USA) cell medium containing 10% fetal calf serum (FBS; Gibco, USA) and 1% penicillin/streptomycin (Gibco, USA) in an incubator at 37 °C and 5% CO2.[49],[50]
(§3) In a 96-well cell culture plate, cells were seeded at a density of 6 × 10^4 cells/mL and observed to be cultured for 24 h. The cells must have 70% confluence before chemical exposure. After 70% confluency incubation, the cells were treated with different concentrations of compounds for 24 h. All chemicals were dissolved in DMSO. […] The amount of DMSO contained in the chemical at the highest concentration was used as a negative control.
(§4) Cell viability was determined by 3-[4,5-dimethylthiazol-2-yl]-2,5-diphenyltetrazolium bromide (MTT) assay. This method is specifically used to evaluate live cells. The succinate dehydrogenase system of active mitochondria reduces the tetrazolium salt MTT to formazan.[51] For the MTT assay, MTT solution […] was added into the cells (200 μL/well) and incubated for 1 h at 37 °C. Absorbance was measured at 570 nm using an Epoch microplate spectrophotometer (BioTek Instruments, Winooska, VT).[52]

[2] = Cytotoxic activity, MTT cell viability assay, BEAS-2B; assay type: cell-based; settings: human, BEAS-2B normal bronchial epithelial cells
Description: as §2, §3, §4

α-amylase = α-amylase inhibitory activity, spectrophotometric starch/Lugol method; assay type: biochemical; settings: mean ± SEM of three parallel measurements; concentration range 50–100–200–400 μM; read-out: antidiabetic inhibition activity IC50 α-amylase
Description: Briefly, 25 μL of the sample solution at various concentrations was mixed with 50 μL of an α-amylase solution (0.1 U/mL) in a phosphate buffer (20 mM, pH 6.9, prepared with 6 mM NaCl) in a 96-well microplate. This mixture was preincubated at 37 °C for 10 min. Following the preincubation, 50 μL of a starch solution (0.05%) was added, and the reaction mixture was incubated for another 10 min at 37 °C. The reaction was then terminated by adding 25 μL of HCl (0.1 M), followed by the addition of 100 μL of Lugol’s solution for monitoring.
as §1

alpha-amylase = target: alpha-amylase; set-up: method as in PMID 34064448, PMID 32525781, PMID 33272713, PMID 35832461, PMID 28495082; settings: Figure 1 design strategy; cited from earlier work
[3] = system: bronchial epithelial normal (BEAS-2B) cells; assay: Cytotoxic activity, MTT cell viability assay, BEAS-2B; assay type: cell-based; settings: at the determined IC50 values
Description: as §2, §3, §4

Row | SMILES | α-glucosidase inhibitory effect compared with acarbose (α-glucosidase) | IC50 (α-glucosidase) [µM] | IC50 [1] [µM] | IC50 at 24 h [2] [µM] | IC50 (α-amylase) [µM] | IC50 (alpha-amylase) [µM] | toxic effect on healthy BEAS-2B cells [3]
1 | O=C(/C=C/c1cccc(C(F)(F)F)c1)c1ccc(N2CCCC2)cc1 [Compound 6, (E)-1-(4-(pyrrolidin-1-yl)phenyl)-3-(3-(trifluoromethyl)phenyl)prop-2-en-1-one] | better inhibitory effect | 54.1 ± 2.87 | > 100 | > 100 | 83.78 ± 0.38 |  | 
2 | O=C(/C=C/c1ccccc1F)c1ccc(N2CCCC2)cc1 [Compound 2, (E)-3-(2-fluorophenyl)-1-(4-(pyrrolidin-1-yl)phenyl)prop-2-en-1-one] |  | 189 ± 1.94 | > 100 | > 100 | 51.96 ± 0.12 |  | 
3 | O=C(/C=C/c1ccc(F)cc1)c1ccc(N2CCCC2)cc1 [Compound 4, (E)-3-(4-fluorophenyl)-1-(4-(pyrrolidin-1-yl)phenyl)prop-2-en-1-one] | better inhibitory effect | 58.9 ± 3.26 | > 100 | > 100 | 30.63 ± 0.25 |  | 
4 | O=C(/C=C/c1cc(C(F)(F)F)cc(C(F)(F)F)c1)c1ccc(N2CCCC2)cc1 [Compound 10, (E)-3-(3,5-bis(trifluoromethyl)phenyl)-1-(4-(pyrrolidin-1-yl)phenyl)prop-2-en-1-one] | better inhibitory effect | 44.2 ± 2.42 | > 100 | > 100 | 39.68 ± 0.27 |  | 
5 | O=C(/C=C/c1ccccc1)c1ccccc1 [trans-chalcone] |  |  |  |  |  | 96.4 | 
6 | O=C(/C=C/c1cccc(C(F)(F)F)c1F)c1ccc(N2CCCC2)cc1 [Compound 11, (E)-3-(2-fluoro-3-(trifluoromethyl)phenyl)-1-(4-(pyrrolidin-1-yl)phenyl)prop-2-en-1-one] |  | 131 ± 3.02 | > 100 | > 100 |  |  | 
7 | O=C(/C=C/c1ccc(F)c(C(F)(F)F)c1)c1ccc(N2CCCC2)cc1 [Compound 13, (E)-3-(4-fluoro-3-(trifluoromethyl)phenyl)-1-(4-(pyrrolidin-1-yl)phenyl)prop-2-en-1-one] |  | 261.5 ± 1.69 | > 100 | > 100 | 83.8 ± 0.01 |  | 
8 | O=C(/C=C/c1cccc(F)c1)c1ccc(N2CCCC2)cc1 [Compound 3, (E)-3-(3-fluorophenyl)-1-(4-(pyrrolidin-1-yl)phenyl)prop-2-en-1-one] | better inhibitory effect |  | > 100 | > 100 |  |  | 
9 | O=C(/C=C/c1cccc(OC(F)(F)F)c1)c1ccc(N2CCCC2)cc1 [Compound 8, (E)-1-(4-(pyrrolidin-1-yl)phenyl)-3-(3-(trifluoromethoxy)phenyl)prop-2-en-1-one] |  | 147.5 ± 0.9 | 60 | > 100 |  |  | no toxic effects
10 | O=C(/C=C/c1ccc(C(F)(F)F)cc1F)c1ccc(N2CCCC2)cc1 [Compound 12, (E)-3-(2-fluoro-4-(trifluoromethyl)phenyl)-1-(4-(pyrrolidin-1-yl)phenyl)prop-2-en-1-one] | better inhibitory effect | 81.8 ± 0.85 | > 100 | > 100 | 80.11 ± 0.49 |  | 
11 | O=C(/C=C/c1ccc(OC(F)(F)F)cc1)c1ccc(N2CCCC2)cc1 [Compound 9, (E)-1-(4-(pyrrolidin-1-yl)phenyl)-3-(4-(trifluoromethoxy)phenyl)prop-2-en-1-one] | better inhibitory effect | 61.3 ± 2.48 | > 100 | > 100 | 39.97 ± 0.26 |  | 
12 | O=C(/C=C/c1ccccc1C(F)(F)F)c1ccc(N2CCCC2)cc1 [Compound 5, (E)-1-(4-(pyrrolidin-1-yl)phenyl)-3-(2-(trifluoromethyl)phenyl)prop-2-en-1-one] |  | 173 ± 3.45 | 82.2 | 97.7 | 91.71 ± 0.28 |  | no toxic effects
13 | O=C(/C=C/c1ccc(C(F)(F)F)cc1)c1ccc(N2CCCC2)cc1 [Compound 7, (E)-1-(4-(pyrrolidin-1-yl)phenyl)-3-(4-(trifluoromethyl)phenyl)prop-2-en-1-one] | better inhibitory effect | 46.5 ± 2.16 | > 100 | > 100 | 38.2 ± 0.83 |  | 
14 | O=C(/C=C/c1ccccc1)c1ccc(N2CCCC2)cc1 [Compound 1, (E)-3-Phenyl-1-(4-(pyrrolidin-1-yl)phenyl)prop-2-en-1-one] | better inhibitory effect | 50.2 ± 2.32 | > 100 | > 100 |  |  | 
